Measured values as given in patent publication US12594243B2, “Pharmaceutical formulations” (THERACOSBIO, LLC, priority 2020, dated 2026).

How the values were obtained:
[1] = human, in vivo
From the text: In a drug-drug interaction clinical pharmacology study the effects of the GLP-1 receptor agonist exenatide on the pharmacokinetics of bexagliflozin were studied in a randomized crossover study. It is known that GLP-1 receptor agonists retard gastric emptying and because the bexagliflozin dosage form has a gastroretentive mechanism, the possibility that the retardation would adversely affect bexagliflozin delivery was considered important to address (see e.g., Guideline on the pharmacokinetic and clinical evaluation of modified release dosage forms (EMA/CPMP/EWP/280/96 Corr1) section 5.1.4.2.). In the study, participants were assigned to either receive bexagliflozin alone first, or combined treatment with bexagliflozin and exenatide first. Each group received both treatments alternately, in a crossover fashion (two-period, two-treatment crossover design), with the two treatment periods separated by a 7-day washout period. […] Although the endpoints of the confidence intervals fell outside of the range 80-125%, indicating an interaction leading to a change in exposure when bexagliflozin was administered following exenatide, the effect of exenatide on bexagliflozin pharmacokinetics was not so large as to jeopardize patient safety or to provoke a recommendation for a change in prescribing pattern. […] Absorption was delayed when bexagliflozin was administered 30 minutes after exenatide injection, with a median Tmax of 5.00 hours post-dose compared to 2.00 hours post-dose following administration of bexagliflozin alone.

P-gp = P-gp (Homo sapiens, UniProt P08183); assay: P-gp substrate observation; type: in vitro ADME
Chain of P-gp (P08183 whole entry): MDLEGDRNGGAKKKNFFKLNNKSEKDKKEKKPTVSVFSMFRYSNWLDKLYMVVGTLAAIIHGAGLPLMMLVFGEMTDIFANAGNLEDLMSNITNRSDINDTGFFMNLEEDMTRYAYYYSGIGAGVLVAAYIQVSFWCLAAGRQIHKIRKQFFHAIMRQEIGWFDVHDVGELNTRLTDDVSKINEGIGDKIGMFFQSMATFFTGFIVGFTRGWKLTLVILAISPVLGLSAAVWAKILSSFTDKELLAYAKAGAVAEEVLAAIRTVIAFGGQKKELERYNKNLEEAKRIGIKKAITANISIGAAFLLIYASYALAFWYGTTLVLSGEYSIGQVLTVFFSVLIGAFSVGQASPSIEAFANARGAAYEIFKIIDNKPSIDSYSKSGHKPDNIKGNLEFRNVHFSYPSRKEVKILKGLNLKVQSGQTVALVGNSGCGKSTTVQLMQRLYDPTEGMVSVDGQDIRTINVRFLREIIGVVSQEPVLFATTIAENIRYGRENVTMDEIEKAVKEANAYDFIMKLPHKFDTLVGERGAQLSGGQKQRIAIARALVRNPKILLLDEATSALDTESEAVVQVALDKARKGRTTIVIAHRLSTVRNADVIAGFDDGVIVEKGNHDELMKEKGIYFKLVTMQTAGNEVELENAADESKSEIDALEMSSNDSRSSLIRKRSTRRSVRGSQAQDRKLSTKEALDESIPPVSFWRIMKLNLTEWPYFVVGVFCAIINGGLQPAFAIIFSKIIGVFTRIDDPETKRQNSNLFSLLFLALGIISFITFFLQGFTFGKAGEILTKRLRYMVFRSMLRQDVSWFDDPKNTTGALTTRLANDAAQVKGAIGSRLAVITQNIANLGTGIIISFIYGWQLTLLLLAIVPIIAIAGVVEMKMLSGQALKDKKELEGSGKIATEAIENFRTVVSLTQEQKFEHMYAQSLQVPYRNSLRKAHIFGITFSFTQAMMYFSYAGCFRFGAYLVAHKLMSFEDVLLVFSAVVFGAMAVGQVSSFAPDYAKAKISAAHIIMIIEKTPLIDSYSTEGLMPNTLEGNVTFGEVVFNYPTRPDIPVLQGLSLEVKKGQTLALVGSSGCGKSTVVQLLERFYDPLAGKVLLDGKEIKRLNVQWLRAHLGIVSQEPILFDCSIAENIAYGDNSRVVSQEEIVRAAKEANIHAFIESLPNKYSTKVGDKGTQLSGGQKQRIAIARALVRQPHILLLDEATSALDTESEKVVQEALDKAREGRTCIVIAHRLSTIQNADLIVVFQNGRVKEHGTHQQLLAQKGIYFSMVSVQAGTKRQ
From the text: Because P-gp expression increases with distance along the small intestine, absorption is likely greater in the duodenum than the ileum, and quantitative mass balance studies using [^14C]-bexagliflozin have shown that colonic absorption is minimal (Zhang et al. Xenobiotica. 2019 Aug. 27:1-11. doi: 10.1080/00498254.2019.1654634). Because of the potential practical incompatibility of using an extended release tablet while aiming for most drug release to occur high in the small intestine, tablets of the invention advantageously include an adaptation that can help to retain them in the stomach. A large part of the extended release of bexagliflozin can thus occur in the stomach, permitting absorption of the drug to occur at the desired location in the small intestine, thereby providing an advantageous pharmacokinetic profile.

[2] = quantitative mass balance studies using [^14C]-bexagliflozin; cited from earlier work

- intra-subject variability for AUC0-t and AUC0-∞ [1]: < 22%
- intra-subject variability for Cmax [1]: approximately 32%
- ratio of geometric least square means for AUC0-t, with exenatide to alone [1]: 147.50%
- ratio of geometric least square means for AUC0-∞, with exenatide to alone [1]: 137.56%
- ratio of geometric least square means for Cmax, with exenatide to alone [1]: 125.27%
- increase of AUC0-t compared to bexagliflozin alone ([1]; sc): approximately 48%
- increase of AUC0-∞ compared to bexagliflozin alone ([1]; sc): ~38%
- increase of Cmax compared to bexagliflozin alone ([1]; sc): ~25%
- P-gp substrate status (P-gp): P-gp substrate
SMILES: OC[C@H]1O[C@@H](c2ccc(Cl)c(Cc3ccc(OCCOC4CC4)cc3)c2)[C@H](O)[C@@H](O)[C@@H]1O [bexagliflozin, (2S,3R,4R,5S,6R)-2-(4-chloro-3-(4-(2-cyclopropoxyethoxy)benzyl)phenyl)-6-(hydroxymethyl)tetrahydro-2H-pyran-3,4,5-triol]
- colonic absorption [2]: minimal
